These results are taken from patent US6376472B1, “Compounds having antihypertensive, cardioprotective, anti-ischemic and antilipolytic properties” (Aventis Pharmaceuticals, Inc., priority 1996, dated 2002).

Data set [1] relates to A1 and A2 receptors. The conditions noted are these: selectivity of receptor affinity; cited from earlier work.
For data set [2], the system named is A2 receptor. The conditions noted are these: relative to NECA; cited from earlier work.
Data set [3] relates to lipolysis. The conditions noted are these: selective agonists of the A2 receptor subtype; cited from earlier work.

The melting point is the temperature of the solid-liquid transition. `COC[C@H]1C[C@@H](n2cnc3c(N[C@H]4CCN(c5ccc(C(F)(F)F)cn5)C4)ncnc32)[C@@H](O)[C@H]1O` had a melting point of 166 to 168 °C.

With `OC[C@H]1O[C@@H](n2cnc3c(NC4CCCC4)ncnc32)[C@H](O)[C@@H]1O` [CPA, Cyclopentyladenosine], the A2/A1 ratio in data set [1] is given as 780.

`Nc1nc(Nc2ccccc2)nc2c1ncn2[C@@H]1O[C@H](CO)[C@@H](O)[C@H]1O` [CV-1808]: in data set [1], the A2/A1 ratio was 0.19. Further, the “fold less potent than NECA in affinity for the A2 receptor” value in data set [2] is 10 fold.

In the case of `CCNC(=O)[C@H]1O[C@@H](n2cnc3c(N)nc(NCCc4ccc(CCC(=O)O)cc4)nc32)[C@H](O)[C@@H]1O` [CGS 21680], the antilipolytic activity result in data set [3] is recorded as “do not exhibit antilipolytic activity”.
